The values below come from ChEMBL document CHEMBL6127139, “Lysine-Targeted Covalent Inhibitors of PI3Kδ Synthesis and Screening by In Situ Interaction Upgradation” (J Med Chem, 2024).

Active and inactive are the calls of the source.

Data set [1] has as its system SU-DHL-6. The data set can be described thus: Induction of apoptosis in human SU-DHL-6 cells assessed as viable cells at 10 uM incubated for 48 hrs by Annexin V-FITC/PI staining based flow cytometric analysis (reference value: 89.81 %). The class given is functional. The note with it: read-out: Activity.
Data set [2] has as its system SU-DHL-6. The data set can be described thus: Induction of apoptosis in human SU-DHL-6 cells assessed as necrotic cells at 1 uM incubated for 48 hrs by Annexin V-FITC/PI staining based flow cytometric analysis (reference value: 1.05 %). The class given is functional. In general terms: A flow cytometer gives signals particle by particle.
Data set [3] has as its system SU-DHL-6. The data set can be described thus: Induction of apoptosis in human SU-DHL-6 cells assessed as viable cells at 1 uM incubated for 48 hrs by Annexin V-FITC/PI staining based flow cytometric analysis (reference value: 89.81 %). The conditions noted are these: read-out: Activity. The data set is classed as functional.
Data set [4] concerns HCT-116. The data set can be described thus: Growth inhibition of human HCT-116 cells incubated for 72 hrs by MTT assay. The data set is classed as functional. (In general: Formazan colour is commonly taken as a measure of viable cells.)
Data set [5] has as its system SU-DHL-6. As to the kind of experiment: Induction of apoptosis in human SU-DHL-6 cells assessed as early apoptotic cells at 10 uM incubated for 48 hrs by Annexin V-FITC/PI staining based flow cytometric analysis (reference value: 5.02 %). The class given is functional.
Data set [6] relates to SU-DHL-6. The data set can be described thus: Induction of apoptosis in human SU-DHL-6 cells assessed as late apoptotic cells at 10 uM incubated for 48 hrs by Annexin V-FITC/PI staining based flow cytometric analysis (reference value: 4.12 %). The class given is functional.
The test system of data set [7] is SU-DHL-6. As to the kind of experiment: Antitumor activity against human SU-DHL-6 cells xenografted in male nude mouse assessed as tumor growth inhibition at 5 mg/kg/day, po administered for 14 days relative to control. The data set is classed as functional. The note with it: SU-DHL-6, 336 h, time 14 day, read-out: TGI.
Data set [8] deals with Raji. The data set can be described thus: Growth inhibition of human Raji cells incubated for 72 hrs by MTT assay. The data set is classed as functional.
The test system of data set [9] is MCF7. The data set can be described thus: Growth inhibition of human MCF7 cells incubated for 72 hrs by MTT assay. The data set is classed as functional.
For data set [10], the system named is SU-DHL-6. As to the kind of experiment: Antiproliferative activity against human SU-DHL-6 cells assessed as inhibition of cell viability preincubated for 12 hrs followed by compound washout and measured after 60 hrs by MTT assay. The class given is functional, cell-based.
Data set [11] has as its system SU-DHL-6. The data set can be described thus: Inhibition of AKT phosphorylation in human SU-DHL-6 cells preincubated for 12 hrs followed by compound washout and measured after 24 hrs by Western blot analysis. The class given is cell-based.
A short description of data set [12]: Growth inhibition of PI3Kdelta-overexpressing human SU-DHL-6 cells incubated for 72 hrs by MTT assay. The class given is functional.
For data set [13], the system named is SU-DHL-6. As to the kind of experiment: Induction of apoptosis in human SU-DHL-6 cells assessed as necrotic cells at 10 uM incubated for 48 hrs by Annexin V-FITC/PI staining based flow cytometric analysis (reference value: 1.05 %). The data set is classed as functional.
Data set [14] deals with SU-DHL-6. As to the kind of experiment: Inhibition of AKT phosphorylation in human SU-DHL-6 cells preincubated for 12 hrs followed by compound washout and measured upto 72 hrs by Western blot analysis. The class given is cell-based.
Data set [15] in a line: Growth inhibition of PI3Kdelta-overexpressing human Pfeiffer cells incubated for 72 hrs by MTT assay. The class given is functional.
Data set [16] deals with SU-DHL-6. The data set can be described thus: Induction of apoptosis in human SU-DHL-6 cells assessed as early apoptotic cells at 1 uM incubated for 48 hrs by Annexin V-FITC/PI staining based flow cytometric analysis (reference value: 5.02 %). The class given is functional.
Data set [17] has as its system SU-DHL-6. As to the kind of experiment: Induction of apoptosis in human SU-DHL-6 cells assessed as late apoptotic cells at 1 uM incubated for 48 hrs by Annexin V-FITC/PI staining based flow cytometric analysis (reference value: 4.12 %). The data set is classed as functional.
The target of data set [18] is T1, Phosphatidylinositol 4,5-bisphosphate 3-kinase catalytic subunit delta isoform (Homo sapiens, UniProt O00329).
T1 sequence (O00329 whole entry): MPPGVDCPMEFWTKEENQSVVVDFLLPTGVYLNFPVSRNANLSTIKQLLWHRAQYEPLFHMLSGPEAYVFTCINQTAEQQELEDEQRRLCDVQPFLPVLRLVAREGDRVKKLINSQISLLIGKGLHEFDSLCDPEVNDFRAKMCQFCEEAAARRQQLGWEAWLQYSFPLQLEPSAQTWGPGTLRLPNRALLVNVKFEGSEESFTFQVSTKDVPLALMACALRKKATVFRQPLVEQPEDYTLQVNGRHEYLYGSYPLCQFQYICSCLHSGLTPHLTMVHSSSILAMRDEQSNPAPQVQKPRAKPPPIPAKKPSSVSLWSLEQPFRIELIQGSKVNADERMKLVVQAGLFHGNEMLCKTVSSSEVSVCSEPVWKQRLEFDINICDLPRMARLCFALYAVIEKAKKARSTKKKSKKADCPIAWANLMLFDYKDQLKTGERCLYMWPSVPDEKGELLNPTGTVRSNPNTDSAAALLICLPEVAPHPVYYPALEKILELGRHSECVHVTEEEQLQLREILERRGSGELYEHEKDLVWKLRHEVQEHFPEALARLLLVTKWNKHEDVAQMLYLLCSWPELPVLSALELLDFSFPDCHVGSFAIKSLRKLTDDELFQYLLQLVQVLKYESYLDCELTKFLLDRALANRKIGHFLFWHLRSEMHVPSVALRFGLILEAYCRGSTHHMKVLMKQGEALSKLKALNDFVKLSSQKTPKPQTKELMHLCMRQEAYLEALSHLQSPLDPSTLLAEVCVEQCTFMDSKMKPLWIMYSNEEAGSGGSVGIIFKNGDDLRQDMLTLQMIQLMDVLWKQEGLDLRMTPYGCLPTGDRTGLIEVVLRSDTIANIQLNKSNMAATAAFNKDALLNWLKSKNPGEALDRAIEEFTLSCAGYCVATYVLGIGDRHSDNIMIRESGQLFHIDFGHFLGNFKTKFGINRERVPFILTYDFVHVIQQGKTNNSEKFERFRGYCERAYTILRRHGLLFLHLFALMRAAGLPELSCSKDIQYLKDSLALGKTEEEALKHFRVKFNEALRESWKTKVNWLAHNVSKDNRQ
The data set can be described thus: Inhibition of recombinant PI3Kdelta (unknown origin) using PIP2:3PS as substrate preincubated for 20 mins followed by ATP addition and measured after 1 hrs by ADP-Glo reagent based assay. A general note: ADP-Glo first removes unused ATP, then detects ADP through luciferase.

Data set [19] can be described thus: Stability of compound in PBS at pH 7.4 incubated for 24 hrs at 37 degreeC by HPLC analysis. The class given is physicochemical. The conditions noted are these: buffer, pH 7.4, 24 h.
Data set [20] can be described thus: Selectivity index, ratio of IC50 for inhibition of recombinant PI3Kbeta (unknown origin) using PIP2:3PS as substrate to IC50 for inhibition of recombinant PI3Kdelta (unknown origin) using PIP2:3PS as substrate.
Data set [21] is described as follows: Selectivity index, ratio of IC50 for inhibition of recombinant PI3Kalpha (unknown origin) using PIP2:3PS as substrate to IC50 for inhibition of recombinant PI3Kdelta (unknown origin) using PIP2:3PS as substrate.
Data set [22] in a line: Selectivity index, ratio of IC50 for inhibition of recombinant PI3Kgamma (unknown origin) using PIP2:3PS as substrate to IC50 for inhibition of recombinant PI3Kdelta (unknown origin) using PIP2:3PS as substrate.
Data set [23] in a line: Chemical reactivity of the compound with N-Boc-Lysine assessed as half-life at 1 uM by HPLC analysis. The class given is physicochemical. The conditions noted are these: incubation with N-Boc-Lysine.
The test system of data set [24] is SU-DHL-6. As to the kind of experiment: Potency index, ratio of idelalisib GI50 to test compound GI50 for growth inhibition of PI3Kdelta-overexpressing human SU-DHL-6 cells incubated for 72 hrs by MTT assay. The class given is functional.
Data set [25] is described as follows: Selectivity ratio of GI50 for human HCT-116 cells to GI50 for PI3Kdelta overexpressing human SU-DHL-6. The class given is functional.
Data set [26] concerns SU-DHL-6. As to the kind of experiment: Inhibition of AKT phosphorylation in human SU-DHL-6 cells incubated for 24 hrs by Western blot analysis. The class given is cell-based. The note with it: dose 10-1000 nM.
For data set [27], the target named is Phosphatidylinositol 4,5-bisphosphate 3-kinase catalytic subunit alpha isoform (Homo sapiens, UniProt P42336). As to the kind of experiment: Inhibition of recombinant PI3Kalpha (unknown origin) using PIP2:3PS as substrate preincubated for 20 mins followed by ATP addition and measured after 1 hrs by ADP-Glo reagent based assay.
In data set [28] the target is Phosphatidylinositol 4,5-bisphosphate 3-kinase catalytic subunit gamma isoform (Homo sapiens, UniProt P48736). As to the kind of experiment: Inhibition of recombinant PI3Kgamma (unknown origin) using PIP2:3PS as substrate preincubated for 20 mins followed by ATP addition and measured after 1 hrs by ADP-Glo reagent based assay.
Data set [29] addresses T2, Phosphatidylinositol 4,5-bisphosphate 3-kinase catalytic subunit delta isoform (Homo sapiens) (UniProt O00329).
T2 sequence (whole entry): T1 sequence (O00329 whole entry)
As to the kind of experiment: Potency index, ratio of idelalisib IC50 to test compound IC50 for inhibition of recombinant PI3Kdelta (unknown origin) using PIP2:3PS as substrate preincubated for 20 mins followed by ATP addition and measured after 1 hrs by ADP-Glo reagent based assay. The conditions noted are these: time 80.0 min.

Data set [30] can be described thus: Stability of compound in water/acetonitrile solution incubated for 24 hrs by HPLC analysis. The data set is classed as physicochemical. The conditions noted are these: buffer.
The target in data set [31] is Phosphatidylinositol 4,5-bisphosphate 3-kinase catalytic subunit beta isoform (Homo sapiens, UniProt P42338). As to the kind of experiment: Inhibition of recombinant PI3Kbeta (unknown origin) using PIP2:3PS as substrate preincubated for 20 mins followed by ATP addition and measured after 1 hrs by ADP-Glo reagent based assay.
Chain of Phosphatidylinositol 4,5-bisphosphate 3-kinase catalytic subunit beta isoform (P42338 whole entry, canonical isoform): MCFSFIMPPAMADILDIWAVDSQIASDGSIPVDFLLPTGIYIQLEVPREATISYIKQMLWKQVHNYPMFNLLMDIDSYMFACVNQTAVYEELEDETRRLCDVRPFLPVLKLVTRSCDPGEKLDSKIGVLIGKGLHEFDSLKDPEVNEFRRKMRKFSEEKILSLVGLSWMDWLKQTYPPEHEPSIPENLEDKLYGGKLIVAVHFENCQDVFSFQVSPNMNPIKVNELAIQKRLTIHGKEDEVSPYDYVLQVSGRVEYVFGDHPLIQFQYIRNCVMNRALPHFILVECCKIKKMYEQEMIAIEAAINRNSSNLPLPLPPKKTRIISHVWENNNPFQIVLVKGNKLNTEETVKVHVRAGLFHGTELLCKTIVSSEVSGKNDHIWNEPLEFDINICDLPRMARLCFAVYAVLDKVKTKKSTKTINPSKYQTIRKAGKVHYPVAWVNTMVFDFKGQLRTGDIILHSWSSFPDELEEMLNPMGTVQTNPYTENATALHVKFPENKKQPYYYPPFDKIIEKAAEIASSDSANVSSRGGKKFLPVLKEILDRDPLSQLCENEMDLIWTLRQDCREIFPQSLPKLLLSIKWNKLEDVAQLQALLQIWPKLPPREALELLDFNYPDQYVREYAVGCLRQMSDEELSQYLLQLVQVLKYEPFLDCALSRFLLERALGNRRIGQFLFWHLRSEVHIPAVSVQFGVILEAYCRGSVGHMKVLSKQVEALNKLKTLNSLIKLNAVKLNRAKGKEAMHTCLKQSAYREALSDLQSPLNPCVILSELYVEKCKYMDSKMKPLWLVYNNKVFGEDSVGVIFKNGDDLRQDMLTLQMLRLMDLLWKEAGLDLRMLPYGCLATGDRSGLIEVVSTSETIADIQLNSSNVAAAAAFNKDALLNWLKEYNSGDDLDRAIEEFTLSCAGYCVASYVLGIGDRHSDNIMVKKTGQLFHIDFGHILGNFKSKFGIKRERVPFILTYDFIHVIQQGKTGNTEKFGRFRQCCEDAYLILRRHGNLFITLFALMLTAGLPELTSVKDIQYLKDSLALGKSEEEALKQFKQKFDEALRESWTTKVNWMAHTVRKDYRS

Chain of Phosphatidylinositol 4,5-bisphosphate 3-kinase catalytic subunit alpha isoform (P42336 whole entry, canonical isoform): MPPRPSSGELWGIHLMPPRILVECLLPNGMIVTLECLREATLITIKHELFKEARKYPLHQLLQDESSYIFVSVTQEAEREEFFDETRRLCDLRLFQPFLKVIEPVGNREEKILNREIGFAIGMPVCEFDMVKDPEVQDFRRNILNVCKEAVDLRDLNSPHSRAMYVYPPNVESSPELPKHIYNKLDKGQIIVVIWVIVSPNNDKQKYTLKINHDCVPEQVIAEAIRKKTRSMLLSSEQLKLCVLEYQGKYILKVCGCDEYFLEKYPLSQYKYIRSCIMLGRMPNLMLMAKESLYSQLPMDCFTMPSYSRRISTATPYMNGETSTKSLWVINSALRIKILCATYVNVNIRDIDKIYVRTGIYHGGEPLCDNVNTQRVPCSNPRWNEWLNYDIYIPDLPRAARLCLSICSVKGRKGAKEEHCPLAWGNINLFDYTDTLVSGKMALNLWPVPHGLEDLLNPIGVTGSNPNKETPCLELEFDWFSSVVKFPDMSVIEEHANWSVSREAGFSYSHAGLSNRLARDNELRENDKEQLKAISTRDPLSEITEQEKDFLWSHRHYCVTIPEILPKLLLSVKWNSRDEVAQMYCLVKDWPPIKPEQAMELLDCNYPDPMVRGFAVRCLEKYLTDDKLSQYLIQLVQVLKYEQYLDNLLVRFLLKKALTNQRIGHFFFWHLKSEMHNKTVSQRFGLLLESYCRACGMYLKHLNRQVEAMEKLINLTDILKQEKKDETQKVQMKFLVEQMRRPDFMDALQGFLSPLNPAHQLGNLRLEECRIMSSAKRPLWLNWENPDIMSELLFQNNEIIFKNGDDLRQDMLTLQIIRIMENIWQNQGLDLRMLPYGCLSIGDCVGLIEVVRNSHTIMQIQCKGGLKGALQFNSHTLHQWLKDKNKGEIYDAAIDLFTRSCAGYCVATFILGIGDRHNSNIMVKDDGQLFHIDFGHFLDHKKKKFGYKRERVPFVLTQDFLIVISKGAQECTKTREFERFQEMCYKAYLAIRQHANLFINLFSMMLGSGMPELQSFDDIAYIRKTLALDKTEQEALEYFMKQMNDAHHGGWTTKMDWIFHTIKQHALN
Chain of Phosphatidylinositol 4,5-bisphosphate 3-kinase catalytic subunit gamma isoform (P48736 whole entry, canonical isoform): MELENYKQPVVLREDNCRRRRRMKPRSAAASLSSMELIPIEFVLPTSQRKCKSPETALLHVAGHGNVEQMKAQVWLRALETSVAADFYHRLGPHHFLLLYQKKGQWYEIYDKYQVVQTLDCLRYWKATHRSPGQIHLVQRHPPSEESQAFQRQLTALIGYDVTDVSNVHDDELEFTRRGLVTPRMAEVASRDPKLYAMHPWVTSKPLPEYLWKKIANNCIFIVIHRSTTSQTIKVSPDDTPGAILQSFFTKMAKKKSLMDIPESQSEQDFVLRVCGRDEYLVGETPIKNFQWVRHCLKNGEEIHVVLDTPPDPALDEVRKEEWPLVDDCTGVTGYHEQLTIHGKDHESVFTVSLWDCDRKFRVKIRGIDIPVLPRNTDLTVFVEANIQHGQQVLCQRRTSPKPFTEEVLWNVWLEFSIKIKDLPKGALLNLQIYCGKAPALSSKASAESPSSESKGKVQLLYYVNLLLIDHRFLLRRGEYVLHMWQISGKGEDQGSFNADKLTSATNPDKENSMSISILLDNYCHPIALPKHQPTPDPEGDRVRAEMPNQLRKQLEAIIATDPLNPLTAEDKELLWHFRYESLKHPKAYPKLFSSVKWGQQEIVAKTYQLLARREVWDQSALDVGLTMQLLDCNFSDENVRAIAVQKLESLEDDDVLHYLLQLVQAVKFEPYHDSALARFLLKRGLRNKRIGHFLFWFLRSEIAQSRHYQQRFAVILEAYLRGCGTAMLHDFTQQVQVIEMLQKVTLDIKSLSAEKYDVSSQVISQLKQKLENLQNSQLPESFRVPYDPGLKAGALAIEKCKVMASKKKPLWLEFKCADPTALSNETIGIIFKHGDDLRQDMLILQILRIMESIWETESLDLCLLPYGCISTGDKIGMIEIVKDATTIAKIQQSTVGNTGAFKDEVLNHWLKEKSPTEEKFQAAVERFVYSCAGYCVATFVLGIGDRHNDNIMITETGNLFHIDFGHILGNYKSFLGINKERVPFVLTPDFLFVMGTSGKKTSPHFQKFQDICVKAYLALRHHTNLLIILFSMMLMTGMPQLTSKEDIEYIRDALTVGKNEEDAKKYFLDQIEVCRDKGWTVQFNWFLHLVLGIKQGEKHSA

On to `CC[C@H](Nc1ncnc2[nH]cnc12)c1nc2cccc(F)c2c(=O)n1-c1ccccc1` [IDELALISIB], for which the viability at 10 µM in data set [1] came out at 79.4%. Also, the Activity came out at 0.8% in data set [2]; 13.29% in data set [5]; 6.75% in data set [6]; 0.6% in data set [13]; 6.76% in data set [16]; 3.46% in data set [17]. Further, the viability at 1 µM in data set [3] stood at 87%. For the same compound, the GI50 (in general, the concentration at which growth is held to half of that of the control) was above 10000 nM in data set [4]; above 10000 nM in data set [8]; above 10000 nM in [9]; 200 nM in data set [12]; 8330 nM in [15]. Further, the inhibition in vivo at 5 mg/kg/day in data set [7] is 50%. Besides, the outcome in [10] was inactive. Besides, the inhibition result in data set [11] and in [14] was “inactive” each time.

Consider `COc1ncc(-c2ccc3ncnc(N[C@H]4CCN(C(=O)C5CCOCC5)C4)c3c2)cc1C(=O)Oc1ccccc1`, for which the IC50 (as a rule, the concentration at which inhibition is half-maximal) came to 0.53 nM in [18], 66 nM in data set [27], 656 nM in [28] and 155 nM in data set [31]. For the same compound, the Stability result in [19] and in data set [30] was “Stable” in each case. In addition, the Ratio IC50 in data set [20] is 292; in [21], 124; in data set [22], above 1000; in data set [29] it was 10. For the same compound, the GI50 in data set [4] was 1900 nM; in [8], 8200 nM; in data set [9], above 10000 nM; in [12], 3 nM; in data set [15], 195 nM. Also, in [23], the half-life (usually the time needed for the level to fall by half in the phase considered) at 1 µM was 2.4 h. Further, the figures for the RatioGI50 in data set [24] and in data set [25] were around 10 and 2500, respectively. In addition, the inhibition result in data set [26] is “Dose-Dependent Effect”. In addition, the outcome in data set [10] was Active. In addition, the inhibition result in [11] and in [14] was “Active” in each case.
